Laboratory results reported in article PMC10186366 (ACS Pharmacology & Translational Science, 2023).
Values joined by “and” are separate entries in the source; they are usually repeats but may differ in a detail not shown here. Identical values can stand only once.

Tests used:
[1] = system: PC43-10 CHO cells (expresses only human RFC); conditions: 96 h; mean (standard error); previously published; cited from earlier work
[2] = system: SHMT2 (mitochondrial C1 metabolism) in KB tumor cells; experiment: Targeted metabolomics flux analysis with [2,3,3-2H]serine in KB cells; format: cell-based, human; conditions: 0.1 μM compound, 250 μM [2,3,3-2H]serine, versus vehicle-treated cells
Text: Serine is catabolized in the mitochondria via SHMT2, which converts serine to glycine and 5,10-methylene THF, the latter of which is metabolized by MTHFD2 to 10-CHOTHF and by MTHFD1L to formate (Figure 7).
The cells were processed for liquid chromatography–mass spectrometry (LC–MS) analysis of total serine and glycine, and deuterated serine (M + 3, M + 2, M + 1, and M + 0 serine, where M + n represents species with n deuterium atoms) and glycine (M + 1 and M + 0) isotopomers. The results are shown in Figure 8 and are compared to those for control (vehicle-treated) cells (labeled “N/A”).
Figure 8 Metabolomics flux analysis with [2,3,3-^2H]serine to assay mitochondrial C1 metabolism via SHMT2. (A) A schematic of [2,3,3-^2H]serine metabolism is shown. Heavy (^2H) atoms in serine (colored circles) are metabolized via SHMT2 initially followed by MTHFD2 and MTHFD1L to formate. (B, C) Total serine and glycine and the distribution of the serine (M + n, n = 0−3) and glycine (n = 0 or 1) isotopomers are shown. The loss of M + 3 serine corresponding to the metabolism of [2,3,3-^2H]serine to M + 1 glycine is a direct measure of SHMT2 activity in the cells.[45] Experimental methods are described in the Experimental Section. Results are shown as mean values plus/minus standard deviations (n = 3). *P < 0.05; **P < 0.01. […]
KB cells (1 × 10[6]) were seeded in each of three 60 mm dishes in folate-, serine-, and glycine-free RPMI1640 supplemented with 10% DFBS, 1% penicillin/streptomycin, 2 mM L-glutamine, 285 μM serine, 130 μM glycine, and 2 nM leucovorin. […] The targeted metabolites were quantitatively determined using the AB Sciex QTRAP 6500 LC–MS/MS system. […] Isotopomers were detected using multiple reaction monitoring (MRM) at the positive ionization mode. […] Absolute metabolite concentrations were calculated from calibration curves and then normalized to total protein concentrations measured from the postextraction pellet (solubilized in 0.5 N NaOH) using the Folin-phenol method.[53] […] To correct for multiple comparisons, adjusted p values were determined using Holm’s method.

[3] = system: D4 CHO cells (expresses only human FRβ); conditions: 96 h; mean (standard error); previously published; cited from earlier work
[4] = system: RT16 CHO cells (expresses only human FRα); conditions: 96 h; mean (standard error); previously published; cited from earlier work
SHMT2 = target: T1, SHMT2 (Homo sapiens, UniProt P34897); experiment: SHMT2 coupled enzyme assay with MTHFD2 (NADH production); format: biochemical; conditions: mean (standard error), at least three replicate assays
T1 construct: N-terminal His6-tagged SHMT2 (residues 30–504); made in house; host or cells: E. coli Rosetta (DE3)pLysS
T1 sequence (P34897 30-504): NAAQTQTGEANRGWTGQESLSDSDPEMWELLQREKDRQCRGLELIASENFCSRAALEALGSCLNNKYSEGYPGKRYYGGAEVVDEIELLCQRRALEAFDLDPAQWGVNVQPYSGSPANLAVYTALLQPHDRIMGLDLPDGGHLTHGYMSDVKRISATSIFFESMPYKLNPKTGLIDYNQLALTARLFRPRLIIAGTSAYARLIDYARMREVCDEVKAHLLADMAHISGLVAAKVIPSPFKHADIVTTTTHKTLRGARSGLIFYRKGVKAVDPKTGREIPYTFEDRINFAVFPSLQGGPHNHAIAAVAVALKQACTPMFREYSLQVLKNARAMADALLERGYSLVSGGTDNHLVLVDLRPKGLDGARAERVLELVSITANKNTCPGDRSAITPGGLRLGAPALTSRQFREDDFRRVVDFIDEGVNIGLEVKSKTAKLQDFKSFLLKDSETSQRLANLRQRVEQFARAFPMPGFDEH
Method: N-terminal His6-tagged SHMT2 (residues 30–504) and full-length MTHFD2 were expressed in Rosetta (DE3)pLysS cells. One liter cultures were grown in LB media with 100 mg/mL ampicillin and 35 mg/mL chloramphenicol at 37 °C until the OD600 was 0.6. […] The cells were pelleted and resuspended in 25 mL of 25 mM Tris–HCl, pH 7.5, 300 mM NaCl, and 5 mM β-Me. To lyse the cells, 40 mg lysozyme and 8 U DNAse I were added followed by incubation on ice for 15 min. The cells were then lysed by emulsification.
Purification of His-SHMT2 and His-MTHFD2 was by Ni-affinity chromatography (above). For further purification of His-SHMT2, pyridoxal 5′-phosphate (PLP) was added (3-fold excess to His-SHMT2) followed by incubation for 16–18 h. Further purification was by size exclusion chromatography on a Superdex 200 16/60 column (GE Healthcare) with monitoring of PLP absorbance at 435 nm. Purified His-SHMT2 was stored in 20 mM sodium phosphate buffer, pH 7.5, 100 mM potassium chloride, 0.2 mM EDTA, and 5 mM β-ME. To further purify MTHFD2, size exclusion chromatography was performed using a Superdex 200 16/60 column (GE Healthcare). His-MTHFD2 was stored in 50 mM Tris–HCl buffer, pH 7.5, 250 mM sodium chloride, 5% glycerol, and 0.5 mM tris(2-chloroethyl) phosphate (TCEP).
Kinetic measurements were recorded in triplicate in a UV-transparent 96-well plate (Costar 3635) at 298 nm using a BioTek Synergy Neo2 Plate Reader. Initial slopes were graphed against inhibitor concentrations and fit to a three-parameter nonlinear regression to calculate IC50 values for each compound (GraphPad Prism 8.0). […] SHMT2 activity was assayed by monitoring NADH production with a coupled assay including 500 nM His-SHMT2 and 10 μM His-MTHFD2 (1:200 molar ratio His-SHMT2/His-MTHFD2). NADH production by His-MTHFD2 was monitored by fluorescence at 470 nm with excitation at 360 nm (Synergy Neo2 Biotek plate reader). Inhibition constants (Ki’s) were calculated from the IC50 values using the equation Ki = IC50/([S]/KM + 1) and the Km and substrate concentration for THF. The THF concentration in the reaction was 50 mM.

KB tumor cells = experiment: Metabolite rescue of growth inhibition in KB cells; format: cell-based, human; conditions: glycine- and nucleoside-free media; for Protection from growth inhibition by adenosine: inhibitor up to 1000 nM, 60 μM adenosine alone
Method: Upper panel: schematic of C1 metabolism. Undefined abbreviations include the following: DHF, dihydrofolate; THF, tetrahydrofolate; FAICAR, formyl 5-aminoimidazole-4-carboxamide ribonucleotide; fGAR, formyl GAR; and 5,10-meTHF, 5,10-methylene tetrahydrofolate. Lower panels: KB cells were plated (4000 cells/well) in glycine-, nucleoside-, and folate-free RPMI 1640 medium with 10% dialyzed fetal bovine serum, antibiotics, L-glutamine, and 2 nM leucovorin over a range of inhibitor concentrations in the presence of adenosine (60 μM), glycine (160 μM), thymidine (10 μM), or AICA (320 μM). As shown, combined glycine plus adenosine or AICA was also tested to identify potential mitochondrial C1 targeting.[45] Cell proliferation was assayed with a fluorescence-based assay.[26] Data are representative of at least triplicate experiments (presented as mean values plus/minus standard errors). Methods are described in the Experimental Section, and additional metabolite rescue data for 4, 5, and 8–11 are presented in Figure S3 (Supporting Information).
Metabolite “rescue” experiments have been used to identify targeted pathways for novel antifolate inhibitors including de novo purine nucleotide and thymidylate biosynthesis (protection by adenosine and thymidine, respectively)[25]−[27],[29],[30],[32],[43],[45]−[47] and mitochondrial C1 metabolism (protection by glycine and adenosine).[45] To gain insights into the targeted pathways that contribute to the loss of KB tumor cell proliferation upon treatment with compounds 3–9, we tested the reversal of growth inhibition by the active compounds in Table 1 (up to 1000 nM) in glycine- and nucleoside-free media in the presence of 60 μM adenosine, 160 μM glycine, or 10 μM thymidine alone or with combined adenosine and glycine. The use of glycine- and nucleoside-free media for these experiments expands the ability to identify causal intracellular targets (including previously unrecognized mitochondrial targets[45]) that can be confirmed by targeted metabolomics and direct in vitro assays (below). […] The results of these experiments are shown in Figure 7 (lower panel) and in Figure S3 (Supporting Information).
AICA circumvents the first folate-dependent enzyme, GARFTase, and is directly metabolized to ZMP (AICAR), thus providing a substrate for AICARFTase[26],[32],[46] (Figure 7, upper panel). This distinguishes primary inhibition at GARFTase (protection by AICA) versus AICARFTase (incomplete protection by AICA) for inhibitors of de novo purine biosynthesis.[25]
Additional proliferation assays with metabolite rescue used KB cells to identify the targeted pathway and enzyme(s) in folate- and glycine-free RPMI1640, DFBS, 2 mM glutamine, and antibiotics. […] These assays have been previously described.[25],[26],[45]

[5] = system: KB human tumor cells (RFC/FRα/PCFT); conditions: 96 h, no folic acid; mean (standard error); previously published; cited from earlier work
human GARFTase = target: T2, human GARFTase (Homo sapiens, UniProt P22102); parameters: method as in PMID 33773393, PMID 31289137, PMID 27439469; conditions: mean (standard error); previously reported; cited from earlier work
T2 construct: GARFTase (formyltransferase domain; residues 808–1010); made in house; host or cells: E. coli Rosetta (DE3)pLysS
T2 sequence (P22102 808-1010): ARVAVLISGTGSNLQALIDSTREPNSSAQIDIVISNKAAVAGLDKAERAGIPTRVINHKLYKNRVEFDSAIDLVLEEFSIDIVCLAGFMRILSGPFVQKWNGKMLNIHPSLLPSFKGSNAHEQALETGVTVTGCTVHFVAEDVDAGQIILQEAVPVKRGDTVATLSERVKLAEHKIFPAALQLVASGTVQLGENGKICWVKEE

| SMILES | IC50 [1] [nM] | Increase in M + 3 serine [2] | IC50 [3] [nM] | IC50 [4] | Ki (SHMT2) [µM] | Protection from growth inhibition by glycine plus adenosine over adenosine alone (KB tumor cells; 160 μM glycine combined with 60 μM adenosine) | IC50 [5] [nM] | Protection from growth inhibition by adenosine (KB tumor cells) | Ki (human GARFTase) [µM] |
| --- | --- | --- | --- | --- | --- | --- | --- | --- | --- |
| Nc1nc2sc(CCCCc3ccc(C(=O)N[C@@H](CCC(=O)O)C(=O)O)cc3)cc2c(=O)[nH]1 [Compound 2] | > 1000 | 2–4 fold | 20 | 9 nM | 12.4 | substantially enhanced and was complete | – | – | – |
| Nc1nc2sc(CCCc3csc(C(=O)N[C@@H](CCC(=O)O)C(=O)O)c3)cc2c(=O)[nH]1 [Compound 10] | > 1000 | – | 0.24 | 0.4 nM and 0.44 nM | – | – | 1.48 | completely protective | – |
| Nc1nc2sc(CCCCc3csc(C(=O)N[C@@H](CCC(=O)O)C(=O)O)c3)cc2c(=O)[nH]1 [Compound 11] | > 1000 | – | 5.63 | 5.62 nM | – | – | 6.85 | completely protective | > 150 |
| Nc1nc2[nH]cc(CCc3ccc(C(=O)N[C@@H](CCC(=O)O)C(=O)O)cc3)c2c(=O)[nH]1 [PMX, reference compound] | – | – | 60 | 42 nM | – | – | – | – | – |
